Experimental data as given in patent US5153308A, “S-sulfonated calcitonin derivatives” (Teijin Limited, priority 1988, dated 1992).
*1 amine or outer side, *2 acyl side, *3 side chain or, on linkers, in order; H or OH if unused. Where a SMILES comes first, the peptide text is derived from it. [ ]: non-standard residue; d: D form. X1 = O=C([C@H](CSS(=O)(=O)O)N[*:1])[*:2]

Columns and labels:
[1] = Stability test in frozen state (residual amount by reverse HPLC); type: physicochemical; details: -80° C., 5 months, compared to native calcitonin-I
Experimental: First, 50 μg each of the diS-sulfonated salmon calcitonin-I and salmon calcitonin-I were separately dissolved in 100 μl of 2.5 mM citrate (pH 2.8) buffer, and the solutions were frozen and stored at -80° C. After 5 months, the frozen samples were thawed, and residual diS-sulfonated salmon calcitonin-I and salmon calcitonin-I were measured by reverse HPLC.

[2] = Stability test in liquid form (residual amount by reverse HPLC); type: physicochemical; details: 37° C., 2 weeks, compared to native salmon calcitonin-I
Experimental: First, 50 μg each of the diS-sulfonated salmon calcitonin-I and salmon calcitonin-I were separately dissolved in 100 μl of 50 mM Tris-Hcl buffer solution (pH 7.2), and the solutions were stored at 37° C. After 2 weeks, the residual diS-sulfonated salmon calcitonin-I and salmon calcitonin-I were measured by reverse HPLC.

CC(C)C[C@H](NC(=O)[C@H](CCCCN)NC(=O)CNC(=O)[C@H](CC(C)C)NC(=O)[C@@H](NC(=O)[C@H](CSS(=O)(=O)O)NC(=O)[C@@H](NC(=O)[C@H](CO)NC(=O)[C@H](CC(C)C)NC(=O)[C@H](CC(N)=O)NC(=O)[C@H](CO)NC(=O)[C@@H](N)CSS(=O)(=O)O)[C@@H](C)O)C(C)C)C(=O)N[C@@H](CO)C(=O)N[C@@H](CCC(N)=O)C(=O)N[C@@H](CCC(=O)O)C(=O)N[C@@H](CC(C)C)C(=O)N[C@@H](Cc1c[nH]cn1)C(=O)N[C@@H](CCCCN)C(=O)N[C@@H](CC(C)C)C(=O)N[C@@H](CCC(N)=O)C(=O)N[C@H](C(=O)N[C@@H](Cc1ccc(O)cc1)C(=O)N1CCC[C@H]1C(=O)N[C@@H](CCCNC(=N)N)C(=O)N[C@H](C(=O)N[C@@H](CC(N)=O)C(=O)N[C@H](C(=O)NCC(=O)N[C@@H](CO)C(=O)NCC(=O)N[C@H](C(=O)N1CCC[C@H]1C(N)=O)[C@@H](C)O)[C@@H](C)O)[C@@H](C)O)[C@@H](C)O [diS-sulfonated salmon calcitonin-I] (H-[X1]SNLST[X1]VLGKLSQELHKLQTYPRTNTGSGTP-NH2)
Stability in the frozen state (in words) [1]: remarkably stable
Stability in a solution (in words) [2]: remarkably stable
